Test results taken from the NIST ThermoML archive (doi:10.1016/j.fluid.2010.10.028).

Assay: xn = mol fraction of the nth substance listed
Settings: Liquid, Vibrating tube method

CC(C)=O [acetone] + CCCCCCC
Settings | mass density [kg/m3]
387.33 K, 39820 kPa, x1 = 0.7024 | 691.19
387.33 K, 44790 kPa, x1 = 0.7024 | 696.6
387.33 K, 44850 kPa, x1 = 0.801 | 707.68
387.33 K, 44910 kPa, x1 = 0.4 | 722
387.33 K, 44910 kPa, x1 = 0.8992 | 722
387.33 K, 49890 kPa, x1 = 0.7024 | 701.8
387.33 K, 54870 kPa, x1 = 0.4 | 732.14
387.33 K, 54870 kPa, x1 = 0.8992 | 732.14
387.33 K, 59840 kPa, x1 = 0.492 | 692.57
387.33 K, 59880 kPa, x1 = 0.7024 | 711.17
387.33 K, 69820 kPa, x1 = 0.801 | 731
387.33 K, 69830 kPa, x1 = 0.4 | 745.58
387.33 K, 69830 kPa, x1 = 0.8992 | 745.58
387.33 K, 79900 kPa, x1 = 0.801 | 739.02
387.33 K, 84880 kPa, x1 = 0.801 | 742.74
387.33 K, 89860 kPa, x1 = 0.801 | 746.32
387.33 K, 99770 kPa, x1 = 0.7024 | 741.29
387.33 K, 99830 kPa, x1 = 0.801 | 753.17
387.33 K, 114840 kPa, x1 = 0.801 | 762.65
387.33 K, 124840 kPa, x1 = 0.801 | 768.53
387.33 K, 129850 kPa, x1 = 0.801 | 771.37
387.34 K, 1350 kPa, x1 = 0.492 | 613.12
387.34 K, 14820 kPa, x1 = 0.7024 | 656.98
387.34 K, 19850 kPa, x1 = 0.492 | 648.12
387.34 K, 24830 kPa, x1 = 0.7024 | 672.45
387.34 K, 24840 kPa, x1 = 0.492 | 655.23
387.34 K, 29850 kPa, x1 = 0.492 | 661.75
387.34 K, 34810 kPa, x1 = 0.7024 | 685.41
387.34 K, 34840 kPa, x1 = 0.492 | 667.74
387.34 K, 39870 kPa, x1 = 0.492 | 673.37
387.34 K, 44860 kPa, x1 = 0.492 | 678.6
387.34 K, 49850 kPa, x1 = 0.492 | 683.53
387.34 K, 54850 kPa, x1 = 0.492 | 688.17
387.34 K, 54880 kPa, x1 = 0.7024 | 706.61
387.34 K, 64820 kPa, x1 = 0.492 | 696.75
387.34 K, 64880 kPa, x1 = 0.7024 | 715.51
387.34 K, 69860 kPa, x1 = 0.7024 | 719.63
387.34 K, 69930 kPa, x1 = 0.492 | 700.84
387.34 K, 74840 kPa, x1 = 0.7024 | 723.6
387.34 K, 74900 kPa, x1 = 0.492 | 704.65
387.34 K, 79840 kPa, x1 = 0.7024 | 727.41
387.34 K, 79890 kPa, x1 = 0.492 | 708.31
387.34 K, 84810 kPa, x1 = 0.7024 | 731.07
387.34 K, 84890 kPa, x1 = 0.492 | 711.86
387.34 K, 89810 kPa, x1 = 0.7024 | 734.6
387.34 K, 89860 kPa, x1 = 0.492 | 715.24
387.34 K, 94770 kPa, x1 = 0.7024 | 737.98
387.34 K, 94840 kPa, x1 = 0.492 | 718.51
387.34 K, 99820 kPa, x1 = 0.492 | 721.68
387.34 K, 104740 kPa, x1 = 0.7024 | 744.46
387.34 K, 104800 kPa, x1 = 0.492 | 724.73
387.34 K, 109720 kPa, x1 = 0.7024 | 747.55
387.34 K, 109770 kPa, x1 = 0.492 | 727.68
387.34 K, 114800 kPa, x1 = 0.7024 | 750.59
387.34 K, 114840 kPa, x1 = 0.492 | 730.61
387.34 K, 119810 kPa, x1 = 0.7024 | 753.51
387.34 K, 119850 kPa, x1 = 0.492 | 733.41
387.34 K, 124820 kPa, x1 = 0.7024 | 756.37
387.34 K, 124850 kPa, x1 = 0.492 | 736.14
387.34 K, 129810 kPa, x1 = 0.7024 | 759.13
387.34 K, 129840 kPa, x1 = 0.492 | 738.77
397.26 K, 1500 kPa, x1 = 0.801 | 626.11
397.26 K, 1680 kPa, x1 = 0.4 | 640.61
397.26 K, 1680 kPa, x1 = 0.8992 | 640.61
397.26 K, 5010 kPa, x1 = 0.4 | 649.41
397.26 K, 5010 kPa, x1 = 0.8992 | 649.41
397.26 K, 14870 kPa, x1 = 0.611 | 638.19
397.26 K, 14980 kPa, x1 = 0.4 | 670.71
397.26 K, 14980 kPa, x1 = 0.8992 | 670.71
397.26 K, 19970 kPa, x1 = 0.4 | 679.48
397.26 K, 19970 kPa, x1 = 0.8992 | 679.48
397.26 K, 29940 kPa, x1 = 0.4 | 694.66
397.26 K, 29940 kPa, x1 = 0.8992 | 694.66
397.26 K, 44910 kPa, x1 = 0.4 | 713.39
397.26 K, 44910 kPa, x1 = 0.8992 | 713.39
397.26 K, 49900 kPa, x1 = 0.4 | 718.87
397.26 K, 49900 kPa, x1 = 0.8992 | 718.87
397.26 K, 54890 kPa, x1 = 0.4 | 724.02
397.26 K, 54890 kPa, x1 = 0.8992 | 724.02
397.26 K, 59880 kPa, x1 = 0.4 | 728.9
397.26 K, 59880 kPa, x1 = 0.8992 | 728.9
397.26 K, 64940 kPa, x1 = 0.611 | 699.14
397.26 K, 69840 kPa, x1 = 0.4 | 738.01
397.26 K, 69840 kPa, x1 = 0.8992 | 738.01
397.26 K, 74820 kPa, x1 = 0.4 | 742.26
397.26 K, 74820 kPa, x1 = 0.8992 | 742.26
397.26 K, 84790 kPa, x1 = 0.4 | 750.27
397.26 K, 84790 kPa, x1 = 0.8992 | 750.27
397.26 K, 89770 kPa, x1 = 0.4 | 754.07
397.26 K, 89770 kPa, x1 = 0.8992 | 754.07
397.26 K, 104690 kPa, x1 = 0.4 | 764.67
